From PubChem BioAssay (NCI)
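Assay format: 96-well plates, 48-hour exposure. At the GI50, growth is halved. The concentration for full growth arrest is given as TGI.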

Key:
Experiment in all cases: inhibition of tumour cell growth, NCI panel, 48 h
K-562 leukemia = test system: K-562 leukemia
SK-OV-3 ovarian = test system: SK-OV-3 ovarian
A498 renal = test system: A498 renal
ACHN renal = test system: ACHN renal
TK-10 renal = test system: TK-10 renal
UACC-257 melanoma = test system: UACC-257 melanoma
HS 578T breast = test system: HS 578T breast
COLO 205 colon = test system: COLO 205 colon
IGROV1 ovarian = test system: IGROV1 ovarian
SF-268 CNS = test system: SF-268 CNS
SK-MEL-2 melanoma = test system: SK-MEL-2 melanoma
HCT-116 colon = test system: HCT-116 colon
SF-539 CNS = test system: SF-539 CNS
UACC-62 melanoma = test system: UACC-62 melanoma
EKVX NSCLC = test system: EKVX NSCLC
786-0 renal = test system: 786-0 renal
SK-MEL-28 melanoma = test system: SK-MEL-28 melanoma
HCC-2998 colon = test system: HCC-2998 colon
MDA-MB-435 = test system: MDA-MB-435
HOP-62 NSCLC = test system: HOP-62 NSCLC
HCT-15 colon = test system: HCT-15 colon
OVCAR-8 ovarian = test system: OVCAR-8 ovarian
M14 melanoma = test system: M14 melanoma
SNB-75 CNS = test system: SNB-75 CNS
HOP-92 NSCLC = test system: HOP-92 NSCLC
MOLT-4 leukemia = test system: MOLT-4 leukemia
SNB-19 CNS = test system: SNB-19 CNS
A549 NSCLC = test system: A549 NSCLC
HL-60(TB) leukemia = test system: HL-60(TB) leukemia
HT29 colon = test system: HT29 colon
OVCAR-4 ovarian = test system: OVCAR-4 ovarian
DU-145 prostate = test system: DU-145 prostate
RXF 393 renal = test system: RXF 393 renal
UO-31 renal = test system: UO-31 renal
KM12 colon = test system: KM12 colon
MCF7 breast = test system: MCF7 breast
OVCAR-5 ovarian = test system: OVCAR-5 ovarian
NCI-H460 lung = test system: NCI-H460 lung
U251 CNS = test system: U251 CNS
MDA-MB-468 breast = test system: MDA-MB-468 breast
SK-MEL-5 melanoma = test system: SK-MEL-5 melanoma
SR leukemia = test system: SR leukemia
NCI-H23 lung = test system: NCI-H23 lung
OVCAR-3 ovarian = test system: OVCAR-3 ovarian
NCI-H522 lung = test system: NCI-H522 lung
CAKI-1 renal = test system: CAKI-1 renal
BT-549 breast = test system: BT-549 breast
NCI-H226 lung = test system: NCI-H226 lung
PC-3 prostate = test system: PC-3 prostate
RPMI-8226 leukemia = test system: RPMI-8226 leukemia
SW-620 colon = test system: SW-620 colon
SF-295 CNS = test system: SF-295 CNS
LOX IMVI melanoma = test system: LOX IMVI melanoma
SN12C renal = test system: SN12C renal
MDA-MB-231 breast = test system: MDA-MB-231 breast
MALME-3M melanoma = test system: MALME-3M melanoma
T-47D breast = test system: T-47D breast
CCRF-CEM leukemia = test system: CCRF-CEM leukemia

CC(=O)Oc1ccccc1C(=O)[Se]C(=NC1CCCCC1)NC1CCCCC1
GI50 (K-562 leukemia): 2090 nM
TGI (K-562 leukemia): 5210 nM
GI50 (SK-OV-3 ovarian): 1690 nM
TGI (SK-OV-3 ovarian): 3180 nM
GI50 (A498 renal): 2310 nM
TGI (A498 renal): 6730 nM
GI50 (ACHN renal): 1790 nM
TGI (ACHN renal): 3270 nM
GI50 (TK-10 renal): 1640 nM
TGI (TK-10 renal): 3030 nM
GI50 (UACC-257 melanoma): 1680 nM
TGI (UACC-257 melanoma): 3150 nM
GI50 (HS 578T breast): 2050 nM
TGI (HS 578T breast): 5370 nM
GI50 (COLO 205 colon): 1950 nM
TGI (COLO 205 colon): 4360 nM
GI50 (IGROV1 ovarian): 1760 nM
TGI (IGROV1 ovarian): 3170 nM
GI50 (SF-268 CNS): 2330 nM
TGI (SF-268 CNS): 5680 nM
GI50 (SK-MEL-2 melanoma): 1640 nM
TGI (SK-MEL-2 melanoma): 3150 nM
GI50 (HCT-116 colon): 1900 nM
TGI (HCT-116 colon): 3730 nM
GI50 (SF-539 CNS): 1670 nM
TGI (SF-539 CNS): 3040 nM
GI50 (UACC-62 melanoma): 1670 nM
TGI (UACC-62 melanoma): 3290 nM
GI50 (EKVX NSCLC): 1650 nM
TGI (EKVX NSCLC): 3060 nM
GI50 (786-0 renal): 1760 nM
TGI (786-0 renal): 3160 nM
GI50 (SK-MEL-28 melanoma): 1760 nM
TGI (SK-MEL-28 melanoma): 3270 nM
GI50 (HCC-2998 colon): 1720 nM
TGI (HCC-2998 colon): 3120 nM
GI50 (MDA-MB-435): 1790 nM
TGI (MDA-MB-435): 3330 nM
GI50 (HOP-62 NSCLC): 1700 nM
TGI (HOP-62 NSCLC): 3360 nM
GI50 (HCT-15 colon): 1780 nM
TGI (HCT-15 colon): 3560 nM
GI50 (OVCAR-8 ovarian): 1720 nM
TGI (OVCAR-8 ovarian): 3140 nM
GI50 (M14 melanoma): 1690 nM
TGI (M14 melanoma): 3190 nM
GI50 (SNB-75 CNS): 1370 nM
TGI (SNB-75 CNS): 2780 nM
GI50 (HOP-92 NSCLC): 1810 nM
TGI (HOP-92 NSCLC): 4230 nM
GI50 (MOLT-4 leukemia): 2390 nM
TGI (MOLT-4 leukemia): 5560 nM
GI50 (SNB-19 CNS): 1670 nM
TGI (SNB-19 CNS): 3100 nM
GI50 (A549 NSCLC): 3010 nM
TGI (A549 NSCLC): 10600 nM
GI50 (HL-60(TB) leukemia): 1950 nM
TGI (HL-60(TB) leukemia): 4710 nM
GI50 (HT29 colon): 2190 nM
TGI (HT29 colon): 5480 nM
GI50 (OVCAR-4 ovarian): 1740 nM
TGI (OVCAR-4 ovarian): 3300 nM
GI50 (DU-145 prostate): 1790 nM
TGI (DU-145 prostate): 3280 nM
GI50 (RXF 393 renal): 1670 nM
TGI (RXF 393 renal): 3040 nM
GI50 (UO-31 renal): 1620 nM
TGI (UO-31 renal): 2970 nM
GI50 (KM12 colon): 1830 nM
TGI (KM12 colon): 3390 nM
GI50 (MCF7 breast): 1820 nM
TGI (MCF7 breast): 3400 nM
GI50 (OVCAR-5 ovarian): 1690 nM
TGI (OVCAR-5 ovarian): 3230 nM
GI50 (NCI-H460 lung): 1980 nM
TGI (NCI-H460 lung): 4370 nM
GI50 (U251 CNS): 1720 nM
TGI (U251 CNS): 3360 nM
GI50 (MDA-MB-468 breast): 1750 nM
TGI (MDA-MB-468 breast): 3320 nM
GI50 (SK-MEL-5 melanoma): 1630 nM
TGI (SK-MEL-5 melanoma): 3060 nM
GI50 (SR leukemia): 1960 nM
TGI (SR leukemia): 4710 nM
GI50 (NCI-H23 lung): 1660 nM
TGI (NCI-H23 lung): 3200 nM
GI50 (OVCAR-3 ovarian): 1840 nM
TGI (OVCAR-3 ovarian): 3390 nM
GI50 (NCI-H522 lung): 1560 nM
TGI (NCI-H522 lung): 3030 nM
GI50 (CAKI-1 renal): 1690 nM
TGI (CAKI-1 renal): 3110 nM
GI50 (BT-549 breast): 1640 nM
TGI (BT-549 breast): 3070 nM
GI50 (NCI-H226 lung): 1600 nM
TGI (NCI-H226 lung): 3210 nM
GI50 (PC-3 prostate): 1830 nM
TGI (PC-3 prostate): 3620 nM
GI50 (RPMI-8226 leukemia): 2160 nM
TGI (RPMI-8226 leukemia): 5390 nM
GI50 (SW-620 colon): 1790 nM
TGI (SW-620 colon): 3370 nM
GI50 (SF-295 CNS): 1610 nM
TGI (SF-295 CNS): 3160 nM
GI50 (LOX IMVI melanoma): 1650 nM
TGI (LOX IMVI melanoma): 3100 nM
GI50 (SN12C renal): 1730 nM
TGI (SN12C renal): 3120 nM
GI50 (MDA-MB-231 breast): 1850 nM
TGI (MDA-MB-231 breast): 3580 nM
GI50 (MALME-3M melanoma): 1730 nM
TGI (MALME-3M melanoma): 3200 nM
GI50 (T-47D breast): 2000 nM
TGI (T-47D breast): 5170 nM
GI50 (CCRF-CEM leukemia): 2030 nM
TGI (CCRF-CEM leukemia): 5050 nM

Cn1c([N+](=O)[O-])cnc1/C=C1\Oc2ccc(Br)cc2C1=O
GI50 (MDA-MB-468 breast): 1590 nM
TGI (MDA-MB-468 breast): 4600 nM

O=C1/C(=C/c2ccccc2[N+](=O)[O-])Oc2ccc(O)cc21
GI50 (MDA-MB-468 breast): 1810 nM
TGI (MDA-MB-468 breast): 3850 nM

COc1ccc(/C=C/C(=O)c2c(O)c(C)c(O)c3c2OC2=CC(O)=C(C(C)=O)C(=O)[C@]23C)cc1
GI50 (MDA-MB-468 breast): 1350 nM
TGI (MDA-MB-468 breast): 5010 nM

Cc1ccc(N(CC(=O)Nc2ccc(S(=O)(=O)NC3CCN(C)CC3)cc2)S(=O)(=O)c2ccc(Cl)cc2)cc1
GI50 (MDA-MB-468 breast): 1910 nM
TGI (MDA-MB-468 breast): 4000 nM
